Patent publication US4272529A, “O-Alcoxycarbonylphenyl esters of anthranilic acid with therapeutical activity, method for their preparation and related pharmaceutical composition” (Simes S.p.A., priority 1979, dated 1981)
“And” between values parts separate entries of the source, which are not always exact repeats. Equal values may be shown once. Read-outs that look alike come from different tables or passages of the source.

Legend:
[1] = test system: adjuvant induced arthritis in the rat; test: Adjuvant induced arthritis in the developing phase; type: in vivo, Lewis rats; details: for Paw volume, injected paw (3rd day) / Paw volume, non injected paw (14th day): unit assumed
Protocol: In the first one, relating to the developing arthritis (Table 4), groups of six Lewis rats have been tested for each dosage; a group was used as the control. Suspensions of the compound being tested were administered for 14 days, starting on the same day of the adjuvant inoculation (0.3 mg of Mycobacterium butyricum in 0.1 ml of mineral oil) in the plantar surface of the right rear paw. The body weights and the volumes of both paws were measured at the third and fourteenth days; the body weights were taken as the toxicity indexes; the paw volumes were used for the calculation of the percent inhibition of the swelling as determined by the adjuvant induced arthritis (D. Walz et al., J. Pharmacol. Exper. Therap., 178, 223, 1971).

[2] = test system: adjuvant induced arthritis in the rat; details: for Non injected paw, 18th day, inhibition % / Non injected paw, 18th day, volume: daily 14th to 18th day
From the text: (§1) According to the second experimental model of adjuvant induced arthritis, there were studied the effects of the tested compounds in the disease already developed for 14 days; the substances were daily administered to groups of six rats for each dosage, from the 14th to the 18th day. […] There was also investigated the irritating property of the compound with respect to the gastric tissues in the rat.

[3] = test system: gastric tissues in the rat
Protocol: as §1
The substances were administered as an aqueous suspension and the animals ware sacrificed after either 4 or 24 hours; the stomachs were removed, opened, washed under tap water and examined.
As regards the 4 hour test (Table 7), the following scoring was used, relating to the hemorrhage degree:
1=one or two points of light hemorrhage
2=some points of light hemorrhage
4=very serious hemorrhages.
In this case too the sum of the scores of three rats for each dosage is reported.

[4] = test system: carrageenin induced edema in the rat; test: Inhibition of the carrageenin induced edema in the rat, further series (right rear paw vs left rear paw); type: in vivo; details: for Inhibition of the carrageenin induced edema: 3 hours after carrageenin
Protocol: The volume difference between the two paws was compared with the values of a control group. In this case too, the carrageenin was injected one hour after the oral administration of the substances being tested as an aqueous suspension; the edema was evaluated 3 hours after the carrageenin injection.

in vivo = details: mouse, po
Toxicity in the rat = details: in vivo
Protocol: In the rat too the toxicity of compound I is very low (4,500 mg/kg).

[5] = test system: carragenin induced edema in the paw of rat; test: Carragenin induced edema in the paw of rat, 50% inhibiting oral dose; type: in vivo; details: for ED50: 1 hour before carrageenin, 3 to 4 hours after carrageenin
Protocol: The edema was induced by injecting the carrageenin (0.1 ml of the 1% suspension in physiological solution) in the plantar aponeurosis of the rear paw of the rat one hour after the oral administration of the tested substances; the edema inhibition was evaluated, 3 to 4 hours after the carrageenin injection, from the difference between the volumes of the paw before and after the carragenin injection with respect to a group of control animals.

[6] = test system: gastric tissues in the rat; test: Acute gastric irritation in the rat (24 hours); type: in vivo; details: for Acute gastric irritation score: sum of scores (0-4) of three rats
Protocol: The following score scale was used for the 24 hour test (Table 6): 0=no lesion or hemorrhage 1=one or two light lesions with hemorrhage 2=some light lesions with hemorrhage 3=some lesions with hemorrhage. […] 4=very serious lesions with hemorrhage. There were used three rats per each dosage and the sum of the scores was made.

mouse = details: in vivo

SMILES: CC(=O)Oc1ccccc1C(=O)O [Acetylsalicylic acid, acetylsalicylic acid]
- Inhibition %, injected paw (3rd day) ([1]; 100 mg/kg os): 30%
- Inhibition %, non injected paw (14th day) ([1]; 100 mg/kg os): 33%
- Paw volume, injected paw (3rd day) ([1]; 100 mg/kg os): 1.65 mL
- Paw volume, non injected paw (14th day) ([1]; 100 mg/kg os): 1.49 mL
- Inhibition %, injected paw (3rd day) ([1]; 200 mg/kg os): 40%
- Inhibition %, non injected paw (14th day) ([1]; 200 mg/kg os): 63%
- Paw volume, injected paw (3rd day) ([1]; 200 mg/kg os): 1.53 mL
- Paw volume, non injected paw (14th day) ([1]; 200 mg/kg os): 1.26 mL
- Non injected paw, 18th day, inhibition % ([2]; 100 mg/kg os): 37%
- Non injected paw, 18th day, volume ([2]; 100 mg/kg os): 2.10
- Non injected paw, 18th day, inhibition % ([2]; 200 mg/kg os): 47%
- Non injected paw, 18th day, volume ([2]; 200 mg/kg os): 1.93
- Acute gastric irritation score ([3]; 150 mg/kg os, 4 hours, sum of hemorrhage scores (0-4) of three rats): 7
- Inhibition of the carrageenin induced edema ([4]; 50 mg/kg os): 12%
- Inhibition of the carrageenin induced edema ([4]; 100 mg/kg os): 35%
- Inhibition of the carrageenin induced edema ([4]; 200 mg/kg os): 43%

SMILES: COC(=O)c1ccccc1OC(=O)c1ccccc1Nc1cccc(C(F)(F)F)c1 [Compound I, N-m-trifluoromethyl-phenylanthranilate of O-methoxycarbonylphenyl]
- LD50 (in vivo): 9500 mg/kg and 22800 µmol/kg
- Inhibition %, injected paw (3rd day) ([1]; 5 mg/kg os): 48%
- Inhibition %, non injected paw (14th day) ([1]; 5 mg/kg os): 10%
- Paw volume, injected paw (3rd day) ([1]; 5 mg/kg os): 1.5 mL
- Paw volume, non injected paw (14th day) ([1]; 5 mg/kg os): 1.64 mL
- Inhibition %, injected paw (3rd day) ([1]; 10 mg/kg os): 53%
- Inhibition %, non injected paw (14th day) ([1]; 10 mg/kg os): 47%
- Paw volume, injected paw (3rd day) ([1]; 10 mg/kg os): 1.53 mL
- Paw volume, non injected paw (14th day) ([1]; 10 mg/kg os): 1.47 mL
- Inhibition %, injected paw (3rd day) ([1]; 25 mg/kg os): 36%
- Inhibition %, non injected paw (14th day) ([1]; 25 mg/kg os): 35%
- Paw volume, injected paw (3rd day) ([1]; 25 mg/kg os): 1.79 mL
- Paw volume, non injected paw (14th day) ([1]; 25 mg/kg os): 1.67 mL
- Increase of the weight of the rats (in words) ([1]; index of poor toxicity): normal
- Inhibiting effect in developing arthritis (in words) ([1]; rat, in vivo): strong inhibiting effect
- LD50 (Toxicity in the rat): 4500 mg/kg
- ED50 [5]: 176 mg/kg and 420 µmol/kg
- Anti-inflammatory activity (in words) ([5]; in terms of molar doses): like that of the flufenamic acid and higher than that of the methyl salicylate and that of the equimolar mixture of methyl salicylate and of flufenamic acid
- Non injected paw, 18th day, inhibition % ([2]; 5 mg/kg os): 27%
- Non injected paw, 18th day, volume ([2]; 5 mg/kg os): 2.16
- Non injected paw, 18th day, inhibition % ([2]; 10 mg/kg os): 46%
- Non injected paw, 18th day, volume ([2]; 10 mg/kg os): 1.82
- Non injected paw, 18th day, inhibition % ([2]; 25 mg/kg os): 100%
- Non injected paw, 18th day, volume ([2]; 25 mg/kg os): 1.04
- Activity in already developed arthritis (in words) ([2]; compared with reference drugs): more active than acetylsalicylic acid and than phenylbutazone
- Acute gastric irritation score ([6]; 25 mg/kg os): 1
- Acute gastric irritation score ([6]; 50 mg/kg os): 1
- Acute gastric irritation score ([6]; 100 mg/kg os): 2
- Acute gastric irritation score ([6]; 200 mg/kg os): 1
- Acute gastric irritation score ([6]; 400 mg/kg os): 1
- Acute gastric irritation score ([6]; 800 mg/kg os): 3
- Acute gastric irritation score ([6]; 1600 mg/kg os): 2
- Ulcerogenic / gastric irritating action (in words) ([6]; compared with reference drugs): highly less ulcerogenic than indomethacin and than acetylsalicylic acid
- Ulcerogenic action (in words) ([3]; rat, in vivo): highly less ulcerogenic than indomethacin and than acetylsalicylic acid
- Inhibition of the carrageenin induced edema ([4]; 1 mg/kg os): 0%
- Inhibition of the carrageenin induced edema ([4]; 1.5 mg/kg os): 24%
- Inhibition of the carrageenin induced edema ([4]; 5 mg/kg os): 21%
- Inhibition of the carrageenin induced edema ([4]; 10 mg/kg os): 34%
- Inhibition of the carrageenin induced edema ([4]; 25 mg/kg os): 42%
- Inhibition of the carrageenin induced edema ([4]; 50 mg/kg os): 52%
- ED30 ([4]; Rattus norvegicus, po, os, dose for which a 30% inhibition is obtained, read-out: ED30 (approximately)): ~8 mg/kg
- Activity in carrageenin induced edema (in words) ([4]; rat, oral, compared with reference drugs): higher than that of aspirin and phenylbutazone, and lower than that of indomethacin
- Acute toxicity (in words) (mouse): relevantly less toxic than the reference substances as well as than their mixture

SMILES: O=C(O)c1ccccc1Nc1cccc(C(F)(F)F)c1 [Flufenamic acid, flufenamic acid]
- LD50 (in vivo): 875 mg/kg and 3100 µmol/kg
- ED50 [5]: 112 mg/kg and 400 µmol/kg

SMILES: COc1ccc2c(c1)c(CC(=O)O)c(C)n2C(=O)c1ccc(Cl)cc1 [Indomethacin, indomethacin]
- Inhibition %, injected paw (3rd day) ([1]; 1 mg/kg os): 39%
- Inhibition %, non injected paw (14th day) ([1]; 1 mg/kg os): 32%
- Paw volume, injected paw (3rd day) ([1]; 1 mg/kg os): 1.63 mL
- Paw volume, non injected paw (14th day) ([1]; 1 mg/kg os): 1.55 mL
- Non injected paw, 18th day, inhibition % ([2]; 1 mg/kg os): 38%
- Non injected paw, 18th day, volume ([2]; 1 mg/kg os): 2.06
- Acute gastric irritation score ([6]; 40 mg/kg os): 5
- Inhibition of the carrageenin induced edema ([4]; 5 mg/kg os): 40%

SMILES: COC(=O)c1ccccc1O [Methyl salicylate, methyl salicylate]
- LD50 (in vivo): 1160 mg/kg and 7600 µmol/kg
- ED50 [5]: 289 mg/kg and 1900 µmol/kg

SMILES: CCCCC1C(=O)N(c2ccccc2)N(c2ccccc2)C1=O [Phenylbutazone, phenylbutazone]
- Inhibition %, injected paw (3rd day) ([1]; 25 mg/kg os): 39%
- Inhibition %, non injected paw (14th day) ([1]; 25 mg/kg os): 42%
- Paw volume, injected paw (3rd day) ([1]; 25 mg/kg os): 1.66 mL
- Paw volume, non injected paw (14th day) ([1]; 25 mg/kg os): 1.52 mL
- Non injected paw, 18th day, inhibition % ([2]; 25 mg/kg os): 46%
- Non injected paw, 18th day, volume ([2]; 25 mg/kg os): 1.95
- Inhibition of the carrageenin induced edema ([4]; 50 mg/kg os): 34%
